According to PMC9019904, “AD Informer Set: Chemical tools to facilitate Alzheimer's disease drug discovery” (Alzheimer's & Dementia : Translational Research & Clinical …, 2022):

Legend:
[1] = tested on: BV2 (mouse microglia) cell line; test: pHrodo-myelin phagocytosis/cell viability high content imaging assay: viability (cell count, nuclear area, nuclear intensity); details: for 1. Cell count (% control) / 2. Nuclear Area (% Control) / 3. Nuclear DNA Intensity (% control): 48 hours treatment
How it was run: (§1)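 Viability was read as total cell count per well by high-content imaging, with mean average nuclear intensity per cell profiling apoptosis (rise early, fall late). Compounds were given at 10 μM for 48 h, pHrodo-myelin being added for the final 20 h. Values are means of two points as % untreated control.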

[2] = tested on: HMC3 (human microglia) cell line; test: as above; details: for 1. Cell count (% control) / 2. Nuclear Area (% Control) / 3. Nuclear DNA Intensity (% control): 48 hours treatment
How it was run: as §1

[3] = tested on: BV2 (mouse microglia) cell line; test: pHrodo-myelin phagocytosis/cell viability high content imaging assay: phagocytosis signal; assay type: cell-based
How it was run: (§2)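 Phagocytosis and cell viability were measured together by high content imaging about 22 hours after pHrodo-myelin addition. Three measurements were extracted from the images. Intensity increase and decrease were taken as early and later apoptosis, respectively.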

[4] = tested on: HMC3 (human microglia) cell line; test: as above; assay type: cell-based
How it was run: as §2

[5] = BV2 cells, 10 uM compound, 48 hours treatment, pHrodo-myelin final 20 hours
[6] = HMC3 cells, 10 uM compound, 48 hours treatment, pHrodo-myelin final 20 hours
[7] = BV2, compound 10 uM, pHrodo-myelin
[8] = HMC3, compound 10 uM, pHrodo-myelin

SMILES | 1. Cell count (% control) ([1]; BV2 cells, 10 uM compound) | 2. Nuclear Area (% Control) ([1]; BV2 cells, 10 uM compound) | 3. Nuclear DNA Intensity (% control) ([1]; BV2 cells, 10 uM compound) | 1. Cell count (% control) ([2]; HMC3 cells, 10 uM compound) | 2. Nuclear Area (% Control) ([2]; HMC3 cells, 10 uM compound) | 3. Nuclear DNA Intensity (% control) ([2]; HMC3 cells, 10 uM compound) | 4. Phagocytosis (% control) [3, 5] | 4. Phagocytosis (% control) [4, 6] | 1. Cell count (% control) ([1]; BV2, compound 10 uM) | 2. Nuclear Area (% Control) ([1]; BV2, compound 10 uM) | 3. Nuclear DNA Intensity (% control) ([1]; BV2, compound 10 uM) | 1. Cell count (% control) ([2]; HMC3, compound 10 uM) | 2. Nuclear Area (% Control) ([2]; HMC3, compound 10 uM) | 3. Nuclear DNA Intensity (% control) ([2]; HMC3, compound 10 uM) | 4. Phagocytosis (% control) [3, 7] | 4. Phagocytosis (% control) [4, 8] | also measured
CN(C)c1ccc2c(c1)Sc1cc(N(C)C)ccc1N2.CS(=O)(=O)O.CS(=O)(=O)O [UNC10303097A, reference compound] | 14.2 % control | 111.0 % Control | 58.9 % control | 59.1 % control | 75.8 % Control | 120.7 % control | 102.3 % control | 6.7 % control | – | – | – | – | – | – | – | – | cytotoxicity in mouse microglial cells (cell count < 70% control) [1]: manifested toxicity in both microglial cell lines; cytotoxicity in human microglial cells (cell count < 70% control) [2]: manifested toxicity in both microglial cell lines
O=C(O)CCCc1nc(-c2ccc(Cl)c(Cl)c2)c(-c2ccccc2)o1 [UNC8366A] | – | – | – | – | – | – | – | – | 118.0 % control | 106.9 % Control | 102.3 % control | 151.8 % control | 102.0 % Control | 90.3 % control | 161.9 % control | 67.3 % control | –
COc1cc([C@@H]2c3cc4c(cc3[C@H](O)[C@H]3COC(=O)[C@H]23)OCO4)cc(OC)c1OC [Podofilox] | – | – | – | – | – | – | – | – | – | – | – | – | – | – | – | – | Mouse microglial cytotoxicity at 10 μM (<70% control) ([1]; 10 μM, BV2): Y (The compound was found to be cytotoxic (cell count threshold: <70% control) when murine immortalized microglial cells were dosed at 10 μM (Y: yes)); Human microglial cytotoxicity at 10 μM (<70% control) ([2]; 10 μM, HMC3): Y (The compound was found to be cytotoxic (cell count threshold: <70% control) when human immortalized microglial cells were dosed at 10 μM (Y: yes)); Stimulation of mouse microglial phagocytosis at 10 μM (>150% control) ([3]; 10 μM, BV2): Y (The compound was found to stimulate phagocytosis (response threshold: >150% control) when murine immortalized microglial cells were dosed at 10 μM (Y: yes)); Inhibition of human microglial phagocytosis at 10 μM (<70% control) ([4]; 10 μM, HMC3): Y (The compound was found to inhibit phagocytosis (response threshold: <70% control) when human immortalized microglial cells were dosed at 10 μM (Y: yes))
Cc1cc(Nc2nc(N[C@@H](C)c3ncc(F)cn3)ncc2Cl)n[nH]1 [UNC10302859A] | – | – | – | – | – | – | – | – | 53.2 % control | 109.7 % Control | 105.5 % control | 84.7 % control | 121.3 % Control | 92.5 % control | 153.2 % control | 95.5 % control | –
O=C1CCc2cc(OCCCCc3nnnn3C3CCCCC3)ccc2N1 [UNC10100278A] | 112.3 % control | 103.2 % Control | 104.4 % control | 103.2 % control | 103.0 % Control | 97.0 % control | 125.3 % control | 104.4 % control | – | – | – | – | – | – | – | – | –
O=c1ccc2c(OCCCCOc3ccccc3)c3ccoc3cc2o1 [UNC10302901A] | 138.9 % control | 105.4 % Control | 102.9 % control | 143.5 % control | 101.6 % Control | 95.5 % control | 188.1 % control | 89.9 % control | – | – | – | – | – | – | – | – | –
CC1(COc2ccc3c(c2)ncn3-c2ccc3cccc(N4CCC(N)CC4)c3n2)COC1 [UNC10223898A] | – | – | – | – | – | – | – | – | 26.6 % control | 103.7 % Control | 28.1 % control | 60.3 % control | 56.9 % Control | 188.8 % control | 0.00125 % control | 0.347 % control | –
Cc1cc(NC(=O)Nc2ccccc2)n(-c2ccccc2)n1 [UNC10302880A] | 120.0 % control | 104.5 % Control | 102.6 % control | 145.4 % control | 97.9 % Control | 96.8 % control | 135.3 % control | 71.0 % control | – | – | – | – | – | – | – | – | –
CCCN(CC1CC1)c1nc(C)nc(Nc2c(Cl)cc(Cl)cc2Cl)c1Cl.Cl [UNC10303155A] | – | – | – | – | – | – | – | – | 40.3 % control | 117.9 % Control | 98.5 % control | 120.1 % control | 96.1 % Control | 105.3 % control | 323.0 % control | 86.3 % control | –
